Results reported in ChEMBL document CHEMBL3994652, “Cytotoxic clerodane diterpenoids from Croton crassifolius” (Bioorg Med Chem Lett, 2017).
The source made the active and inactive calls. The rule behind the calls is not given here.

Legend:
Hep 3B2 [1] = assay: Cytotoxicity against human Hep3B cells assessed as growth inhibition after 48 hrs by MTT assay; format: functional, cell-based
HepG2 [2] = assay: Cytotoxicity against human HepG2 cells assessed as growth inhibition at 100 uM after 48 hrs by MTT assay; format: functional, cell-based
Hep 3B2 [3] = assay: Cytotoxicity against human Hep3B cells assessed as growth inhibition at 100 uM after 48 hrs by MTT assay; format: functional, cell-based
HepG2 [4] = assay: Cytotoxicity against human HepG2 cells assessed as growth inhibition after 48 hrs by MTT assay; format: functional, cell-based; conditions: HepG2, 48 h
Hep 3B2 [5] = assay: Induction of apoptosis in human Hep3B cells assessed as cell shrinkage at 20 uM after 48 hrs by acridine orange dye-based fluorescence microscopy; format: functional
Hep 3B2 [6] = assay: Induction of apoptosis in human Hep3B cells assessed as formation of apoptotic bodies at 20 uM after 48 hrs by acridine orange dye-based fluorescence microscopy; format: functional, cell-based
Hep 3B2 [7] = assay: Induction of apoptosis in human Hep3B cells assessed as chromatin condensation at 20 uM after 48 hrs by acridine orange dye-based fluorescence microscopy; format: functional, cell-based
Hep 3B2 [8] = assay: Induction of apoptosis in human Hep3B cells assessed as reduction in pro-caspase 3 level at 10 to 40 uM after 48 hrs by Western blot method; format: functional, cell-based
Hep 3B2 [9] = assay: Induction of apoptosis in human Hep3B cells assessed as increase in cleaved caspase 3 level at 10 to 40 uM after 48 hrs by Western blot method; format: functional, cell-based
Hep 3B2 [10] = assay: Induction of apoptosis in human Hep3B cells assessed as cleaved PARP level after 48 hrs by Western blot method; format: functional, cell-based

SMILES	IC50 (Hep 3B2 [1]) [µM]	growth inhibition (GI) (HepG2 [2])	growth inhibition (GI) (Hep 3B2 [3])	IC50 (HepG2 [4]) [µM]	Activity (Hep 3B2 [5])	Activity (Hep 3B2 [6])	Activity (Hep 3B2 [7])	Activity (Hep 3B2 [8])	Activity (Hep 3B2 [9])	Activity (Hep 3B2 [10])
O=c1[nH]cc(F)c(=O)[nH]1 [FLUOROURACIL]	49.7	–	–	–	–	–	–	–	–	–
C[C@H]1C[C@@H]2OC(=O)[C@]3(C)CCCC(=C23)[C@]12C[C@H](c1ccoc1)OC2=O	42	Active	Active	17.9	Active	Active	Active	Active	Active	Dose-dependent effect
COC(=O)[C@@]1(C)CC(=O)C=C2C1=CC[C@@H](C)[C@]2(C)CC(=O)c1ccoc1	51.6	Active	–	–	–	–	–	–	–	–
